Literature values in patent publication EP0313535B1 (Bristol-Myers Squibb Company, priority 1987, dated 1989).

Tests used:
[1] = metabolite of buspirone

O=C1CC2(CCCC2)CC(=O)N1CCCCN1CCN(c2ncccn2)CC1 [buspirone, Buspirone]
biological half life (in man (Mayol et al. 1985)): 2-11 hours | variation of the maximum plasma concentration (interindividual (Gammans et al. 1986)): up to 10 fold

O=C1CC2(CCCC2)CC(=O)N1CCCCN1CCN(c2ncc(O)cn2)CC1 [5-OH-buspirone]
pharmacological activity [1]: no pharmacological activity

c1cnc(N2CCNCC2)nc1 [Example 1-PP, 1-(2-pyrimidinyl)-piperazine]
activity relative to buspirone per se [1]: 20-25%
